Tests used:
Format in all cases: in vivo
[1] = system: galium (catchweed bedstraw, Galium aparine); assay: Test A postemergence, galium; settings: Postemergence; for Galium plant response rating: 500 g ai/ha, visual injury vs untreated controls after approx. 10 days
Procedure, shortened: (§1)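 Preemergence: pigweed seeds in loam soil–sand blend received a directed soil spray of test chemicals in a non-phytotoxic solvent with surfactant. Postemergence: barnyardgrass, wheat and galium in pots of the same soil, 2 to 10 cm tall at one- to two-leaf stage, sprayed with the same formulation.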

[2] = system: kochia (Bassia scoparia); assay: Test A preemergence, kochia; settings: Preemergence; for Kochia plant response rating: 125 g ai/ha, visual injury on 0 to 100 scale (0 no effect, 100 complete control), approximately 10 days; for Plant response rating, Kochia: 0 to 100 scale (0 no effect, 100 complete control)
Procedure, shortened: (§2)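 Pots: loam soil/sand blend. Pre: directed soil spray at planting. Post: plants 2–10 cm, 1–2 leaf stage. Formulation: non-phytotoxic solvent + surfactant.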

[3] = system: Foxtail, Giant (giant foxtail, Setaria faberi); assay: Test A preemergence, Foxtail, Giant; settings: Preemergence; for Foxtail, Giant plant response rating: 125 g ai/ha, visual injury on 0 to 100 scale (0 no effect, 100 complete control), approximately 10 days; for Plant response rating, Foxtail, Giant: 0 to 100 scale (0 no effect, 100 complete control)
Procedure, shortened: as §2

[4] = system: Ryegrass, Italian (Italian ryegrass, Lolium multiflorum); assay: Test A postemergence, Ryegrass, Italian; settings: Postemergence; for Ryegrass, Italian plant response rating: 500 g ai/ha, visual injury vs untreated controls after approx. 10 days
Procedure, shortened: as §2

[5] = system: ragweed (common ragweed, Ambrosia artemisiifolia); assay: Test A preemergence, ragweed; settings: Preemergence; for Ragweed plant response rating: 125 g ai/ha, visual injury on 0 to 100 scale (0 no effect, 100 complete control), approximately 10 days; for Plant response rating, Ragweed: 0 to 100 scale (0 no effect, 100 complete control)
Procedure, shortened: as §2

[6] = system: kochia (Bassia scoparia); assay: Test A postemergence, kochia; settings: Postemergence; for Kochia plant response rating: 500 g ai/ha, visual injury vs untreated controls after approx. 10 days
Procedure, shortened: as §2

[7] = system: pigweed (Amaranthus retroflexus); assay: Test A postemergence, pigweed; settings: Postemergence; for Pigweed plant response rating: 500 g ai/ha, visual injury vs untreated controls after approx. 10 days
Procedure, shortened: as §2

[8] = system: Foxtail, Giant (giant foxtail, Setaria faberi); assay: Test A postemergence, Foxtail, Giant; settings: Postemergence; for Foxtail, Giant plant response rating: 500 g ai/ha, visual injury vs untreated controls after approx. 10 days
Procedure, shortened: as §2

[9] = system: barnyardgrass (Echinochloa crus-galli); assay: Test A postemergence, barnyardgrass; settings: Postemergence; for Barnyardgrass plant response rating: 500 g ai/ha, visual injury vs untreated controls after approx. 10 days
Procedure, shortened: as §1

[10] = system: pigweed (Amaranthus retroflexus); assay: Test A preemergence, pigweed; settings: for Pigweed plant response rating: 125 g ai/ha, visual injury on 0 to 100 scale (0 no effect, 100 complete control), approximately 10 days; for Plant response rating, Pigweed: 0 to 100 scale (0 no effect, 100 complete control)
Procedure, shortened: as §1

[11] = system: corn (Zea mays); assay: Test A postemergence, corn; settings: Postemergence; for Corn plant response rating: 500 g ai/ha, visual injury vs untreated controls after approx. 10 days
Procedure, shortened: as §2

[12] = system: barnyardgrass (Echinochloa crus-galli); assay: Test A preemergence, barnyardgrass; settings: Preemergence; for Barnyardgrass plant response rating: 125 g ai/ha, visual injury on 0 to 100 scale (0 no effect, 100 complete control), approximately 10 days; for Plant response rating, Barnyardgrass: 0 to 100 scale (0 no effect, 100 complete control)
Procedure, shortened: as §2

[13] = system: wheat (Triticum aestivum); assay: Test A postemergence, wheat; settings: Postemergence; for Wheat plant response rating: 500 g ai/ha, visual injury vs untreated controls after approx. 10 days
Procedure, shortened: as §1

[14] = system: ragweed (common ragweed, Ambrosia artemisiifolia); assay: Test A postemergence, ragweed; settings: Postemergence; for Ragweed plant response rating: 500 g ai/ha, visual injury vs untreated controls after approx. 10 days
Procedure, shortened: as §2

[15] = system: blackgrass (Alopecurus myosuroides); assay: Test A postemergence, blackgrass; settings: Postemergence; for Blackgrass plant response rating: 500 g ai/ha, visual injury vs untreated controls after approx. 10 days
Procedure, shortened: as §2

[16] = system: Ryegrass, Italian (Italian ryegrass, Lolium multiflorum); assay: Test A preemergence, Ryegrass, Italian; settings: Preemergence; for Ryegrass, Italian plant response rating: 125 g ai/ha, visual injury on 0 to 100 scale (0 no effect, 100 complete control), approximately 10 days; for Plant response rating, Ryegrass, Italian: 0 to 100 scale (0 no effect, 100 complete control)
Procedure, shortened: as §2

[17] = 125 g ai/ha, visual injury approx. 10 days, 0 to 100 scale (0 no effect, 100 complete control)
[18] = 0 to 100 scale (0 no effect, 100 complete control)
[19] = 31 g ai/ha, visual injury on 0 to 100 scale (0 no effect, 100 complete control), approx. 10 days
[20] = 125 g ai/ha, 0 to 100 scale (0 no effect, 100 complete control)
[21] = 31 g ai/ha, visual injury, approx. 10 days

Cc1cc(C)c(C2=NOC3CCCCC23)cc1NS(=O)(=O)C(F)(F)F (racemic) [Compound 125]
80: Plant response rating, Ragweed ([5]; 500 g ai/ha) | Kochia plant response rating [6, 18] | Plant response rating, Barnyardgrass [9, 17] | Ragweed plant response rating [14, 18]
0: Plant response rating, Ryegrass, Italian [4, 17] | Plant response rating, Corn [11, 17]
100: Plant response rating, Kochia ([2]; 500 g ai/ha) | Foxtail, Giant plant response rating [3] | Plant response rating, Foxtail, Giant ([3]; 500 g ai/ha) | Pigweed plant response rating [10] | Plant response rating, Pigweed ([10]; 500 g ai/ha) | Barnyardgrass plant response rating [12] | Plant response rating, Barnyardgrass ([12]; 500 g ai/ha) | Ryegrass, Italian plant response rating [16] | Plant response rating, Ryegrass, Italian ([16]; 500 g ai/ha)
60: Ragweed plant response rating [5] | Plant response rating, Pigweed [7, 17] | Corn plant response rating [11, 18] | Plant response rating, Ragweed [14, 17] | Blackgrass plant response rating [15, 18]
20: Plant response rating, Foxtail, Giant [8, 17]
30: Plant response rating, Wheat [13, 17]
90: Plant response rating, Galium [1, 17] | Galium plant response rating [1, 18] | Kochia plant response rating [2] | Pigweed plant response rating [7, 18] | Barnyardgrass plant response rating [9, 18]
50: Foxtail, Giant plant response rating [8, 18]
10: Plant response rating, Blackgrass [15, 17]
70: Ryegrass, Italian plant response rating [4, 18] | Plant response rating, Kochia [6, 17] | Wheat plant response rating [13, 18]

CC(=O)OCN(c1cc(C2=NO[C@@H]3CCC[C@H]23)c(C)cc1C)S(=O)(=O)C(F)(F)F (relative stereo) [Compound 102]
100: Plant response rating, Galium [1, 17] | Galium plant response rating [1, 18] | Pigweed plant response rating [10] | Plant response rating, Pigweed ([10]; 500 g ai/ha) | Plant response rating, Barnyardgrass ([12]; 500 g ai/ha)
30: Plant response rating, Foxtail, Giant [8, 17] | Corn plant response rating [11, 18]
0: Plant response rating, Blackgrass [15, 17] | Blackgrass plant response rating [15, 18]
90: Plant response rating, Kochia ([2]; 500 g ai/ha) | Plant response rating, Foxtail, Giant ([3]; 500 g ai/ha) | Ryegrass, Italian plant response rating [4, 18] | Kochia plant response rating [6, 18] | Plant response rating, Barnyardgrass [9, 17] | Barnyardgrass plant response rating [9, 18] | Ragweed plant response rating [14, 18] | Ryegrass, Italian plant response rating [16] | Plant response rating, Ryegrass, Italian ([16]; 500 g ai/ha)
20: Ragweed plant response rating [5]
80: Foxtail, Giant plant response rating [3] | Plant response rating, Ryegrass, Italian [4, 17] | Pigweed plant response rating [7, 18] | Barnyardgrass plant response rating [12] | Wheat plant response rating [13, 18]
10: Plant response rating, Corn [11, 17]
40: Plant response rating, Wheat [13, 17]
70: Kochia plant response rating [2] | Plant response rating, Ragweed ([5]; 500 g ai/ha) | Plant response rating, Kochia [6, 17] | Plant response rating, Pigweed [7, 17] | Foxtail, Giant plant response rating [8, 18] | Plant response rating, Ragweed [14, 17]

Cc1cc(C)c(C2=NOC3(C2)CC(C)CC(C)C3)cc1NS(=O)(=O)C(F)(F)F (single isomer, unassigned) [Compound 167]
80: Plant response rating, Galium [1, 20]
20: Plant response rating, Ryegrass, Italian [4, 20] | Plant response rating, Pigweed [7, 19] | Pigweed plant response rating [10] | Barnyardgrass plant response rating [12] | Plant response rating, Ragweed [14, 20] | Plant response rating, Blackgrass [15, 20]
30: Plant response rating, Kochia [2, 21] | Plant response rating, Wheat [13, 20] | Plant response rating, Ryegrass, Italian [16, 21]
60: Plant response rating, Barnyardgrass [9, 20] | Ryegrass, Italian plant response rating [16]
10: Foxtail, Giant plant response rating [3] | Plant response rating, Kochia [6, 19] | Plant response rating, Foxtail, Giant [8, 20] | Plant response rating, Barnyardgrass [9, 19] | Plant response rating, Corn [11, 20]
70: Plant response rating, Pigweed [7, 20]
0: Plant response rating, Galium [1, 19] | Plant response rating, Foxtail, Giant [3, 21] | Plant response rating, Ryegrass, Italian [4, 19] | Plant response rating, Ragweed [5, 21] | Ragweed plant response rating [5] | Plant response rating, Foxtail, Giant [8, 19] | Plant response rating, Pigweed [10, 21] | Plant response rating, Corn [11, 19] | Plant response rating, Barnyardgrass [12, 21] | Plant response rating, Wheat [13, 19] | Plant response rating, Ragweed [14, 19] | Plant response rating, Blackgrass [15, 19]
40: Kochia plant response rating [2] | Plant response rating, Kochia [6, 20]

Reference: patent US20230278972A1, “SUBSTITUTED HALOALKYL SULFONANILIDE HERBICIDES” (FMC Corporation, priority 2020, published 2023)
